Test results reported in ChEMBL document CHEMBL5518235, “Identification of Novel Series of Potent and Selective Relaxin Family Peptide Receptor 1 (RXFP1) Agonists” (J Med Chem, 2024).

Experiments:
[1] = Metabolic stability in cryopreserved human hepatocytes assessed as unbound intrinsic clearance measured per 10^6 cells at 1 uM measured after 120 mins by LC-MS/MS analysis; format: ADME, cell-based, Hepatocyte; conditions: 2 h
Relaxin receptor 1 = target: T1, Relaxin receptor 1 (Homo sapiens, UniProt Q9HBX9); assay: Agonist activity at human RXFP1 expressed in T-Rex-CHO-K1 cells assessed as stimulation of cAMP production incubated for 45 mins by HTRF assay; format: functional, cell-based
T1 sequence (Q9HBX9 whole entry): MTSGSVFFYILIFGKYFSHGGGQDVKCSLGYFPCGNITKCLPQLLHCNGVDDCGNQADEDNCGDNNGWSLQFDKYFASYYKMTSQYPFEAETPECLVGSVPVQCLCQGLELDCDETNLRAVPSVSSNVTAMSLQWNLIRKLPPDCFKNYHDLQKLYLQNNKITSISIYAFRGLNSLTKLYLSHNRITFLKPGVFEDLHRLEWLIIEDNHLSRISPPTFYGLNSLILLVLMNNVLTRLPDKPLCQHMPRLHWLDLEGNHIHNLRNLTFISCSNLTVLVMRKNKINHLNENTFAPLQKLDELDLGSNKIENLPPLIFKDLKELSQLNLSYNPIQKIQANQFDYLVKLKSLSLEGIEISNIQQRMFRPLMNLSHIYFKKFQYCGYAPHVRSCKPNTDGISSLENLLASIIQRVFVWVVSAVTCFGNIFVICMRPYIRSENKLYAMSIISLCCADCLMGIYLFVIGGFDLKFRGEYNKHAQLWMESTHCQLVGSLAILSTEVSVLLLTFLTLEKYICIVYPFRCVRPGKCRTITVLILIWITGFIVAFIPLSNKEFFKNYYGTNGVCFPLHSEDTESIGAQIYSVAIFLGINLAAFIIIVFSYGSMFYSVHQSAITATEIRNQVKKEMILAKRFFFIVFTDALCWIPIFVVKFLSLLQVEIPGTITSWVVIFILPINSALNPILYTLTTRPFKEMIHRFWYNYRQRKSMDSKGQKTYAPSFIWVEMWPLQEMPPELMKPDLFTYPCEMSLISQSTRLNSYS

[2] = target: T2, Relaxin receptor 1 (Homo sapiens) (UniProt Q9HBX9); assay: Agonist activity at human RXFP1 expressed in T-Rex-CHO-K1 cells assessed as stimulation of cAMP production by measuring maximal efficacy at 50 uM incubated for 45 mins by HTRF assay relative to control; format: functional, cell-based; conditions: filed as agonist
T2 sequence (whole entry): T1 sequence (Q9HBX9 whole entry)

[3] = Metabolic stability in cryopreserved human hepatocytes assessed as intrinsic clearance measured per 10^6 cells at 1 uM after 120 mins by LC-MS/MS analysis; format: ADME, cell-based, Hepatocyte; conditions: cryopreserved hepatocytes, read-out: CLH
[4] = Metabolic stability in human liver microsomes assessed as intrinsic clearance at 1 uM incubated for 30 mins in presence of NADPH by LC-MS/MS analysis; format: ADME, Microsome; conditions: liver microsomes, read-out: CLH
[5] = Lipophilicity, logD of the compound in 1-octanol and phosphate buffer at pH 7.4 incubated for 3 hrs by shake flask method based LC/MS/MS analysis; format: physicochemical; conditions: 1-octanol/phosphate buffer, pH 7.4
[6] = Metabolic stability in human liver microsomes assessed as unbound intrinsic clearance at 1 uM incubated for 30 mins in presence of NADPH by LC-MS/MS analysis; format: ADME, Microsome; conditions: 0.5 h

Compound | CL free [1] | EC50 (Relaxin receptor 1) | Emax [2] | hepatocyte CLint at 1 µM [3] | microsomal CLint at 1 µM [4] | logD at 3 h [5] | CL free [6]
COc1cc(F)c(O[C@H]2CC[C@@H](C(=O)O)CC2)cc1C(=O)N[C@H]1[C@@H](C(=O)Nc2ccc(F)c(S(=O)(=O)C(F)(F)F)c2)[C@@H]2C=C[C@H]1C2 | 32 µL/min | 15.8 nM | 114% | 7.5 µL/min/1e6 cells | – | – | –
COc1ccc(-c2cccnc2)cc1C(=O)N[C@@H]1[C@H](C(=O)Nc2cccc(S(=O)(=O)C(F)(F)F)c2)[C@H]2C=C[C@@H]1C2 (racemic) | – | 1740 nM | 87% | – | > 300 µL/min/mg | 4.7 | > 38 10^3uL/min/mg
COc1cc(F)c(O[C@H]2CC[C@@H](C(=O)O)CC2)cc1C(=O)N[C@H]1[C@@H](C(=O)Nc2cccc(S(=O)(=O)C(F)(F)F)c2)[C@@H]2C=C[C@H]1C2 | 100 µL/min | 63.1 nM | 109% | 11 µL/min/1e6 cells | – | 3.25 | –
COc1cc(F)c(O[C@H]2CC[C@@H](C(=O)O)CC2)cc1C(=O)N[C@H]1[C@H](C(=O)Nc2ccc(F)c(C(F)(F)F)c2)[C@@H]2C=C[C@H]1C2 | 91 µL/min | 3980 nM | 91% | 10 µL/min/1e6 cells | – | 3.5 | –
COc1cc(F)c(-c2ccc(C[C@H](C(=O)O)N(C)C)cc2)cc1C(=O)N[C@@H]1[C@H]2CC[C@H](C2)[C@@H]1C(=O)Nc1cccc(S(=O)(=O)C(F)(F)F)c1 | – | 200 nM | 105% | – | 28 µL/min/mg | 3.7 | 1.1 10^3uL/min/mg
COc1cc(F)c(F)cc1C(=O)N[C@@H]1[C@H](C(=O)Nc2cccc(S(=O)(=O)C(F)(F)F)c2)[C@H]2C=C[C@@H]1C2 (racemic) | – | 794 nM | 109% | – | > 300 µL/min/mg | > 4.2 | > 25 10^3uL/min/mg
COc1cc(F)c(-c2ccccc2)cc1C(=O)N[C@@H]1[C@H](C(=O)Nc2cccc(S(=O)(=O)C(F)(F)F)c2)[C@H]2C=C[C@@H]1C2 (racemic) | – | 912 nM | 93% | – | 110 µL/min/mg | > 3.9 | 92 10^3uL/min/mg
COc1ccccc1C(=O)N[C@@H]1CCC[C@@H]1C(=O)Nc1cccc(S(=O)(=O)C(F)(F)F)c1 (racemic) | – | > 50100 nM | 74% | – | 174 µL/min/mg | 4.9 | 2.4 10^3uL/min/mg
COc1cc(F)c(OCCCCC(=O)O)cc1C(=O)N[C@H]1[C@@H](C(=O)Nc2cccc(S(=O)(=O)C(F)(F)F)c2)[C@@H]2C=C[C@H]1C2 (racemic) | 89 µL/min | 251 nM | 119% | 16 µL/min/1e6 cells | – | 2.9 | –
COc1cc(F)c(O[C@H]2CC[C@@H](C(=O)O)CC2)cc1C(=O)N[C@@H]1[C@H]2CC[C@H](C2)[C@@H]1C(=O)Nc1ccccc1 | 25 µL/min | 7940 nM | 98% | 7.6 µL/min/1e6 cells | – | 2.5 | –
COc1ccccc1C(=O)N[C@@H]1[C@H](C(=O)Nc2cccc(S(=O)(=O)C(F)(F)F)c2)[C@H]2C=C[C@@H]1C2 (racemic) | – | 3160 nM | 100% | – | 300 µL/min/mg | 4.9 | 12 10^3uL/min/mg
COc1cc(F)c(O[C@H]2CC[C@H](C(=O)O)CC2)cc1C(=O)N[C@H]1[C@@H](C(=O)Nc2cccc(S(=O)(=O)C(F)(F)F)c2)[C@@H]2C=C[C@H]1C2 | 84 µL/min | 2000 nM | 81% | 8.4 µL/min/1e6 cells | – | 3 | –
COc1cc(F)c(O[C@H]2CC[C@](C)(C(=O)O)CC2)cc1C(=O)N[C@@H]1[C@H]2CC[C@H](C2)[C@@H]1C(=O)Nc1cccc(S(=O)(=O)C(F)(F)F)c1 | 222 µL/min | 100 nM | 103% | 10 µL/min/1e6 cells | – | 4.2 | –
COc1cc(F)c(O[C@H]2CC[C@@](C)(C(=O)O)CC2)cc1C(=O)N[C@@H]1[C@H]2CC[C@H](C2)[C@@H]1C(=O)Nc1cccc(S(=O)(=O)C(F)(F)F)c1 | 306 µL/min | 2 nM | 109% | 15 µL/min/1e6 cells | – | 4.15 | –
